Data on one molecule can be found in patent US10975116B2, “Methods of treating and preventing gastrointestinal motility disorders using aminosterols” (Enterin, Inc., priority 2013, dated 2021).

SMILES strings stand for the structures. Values joined by “and” are separate entries in the source; they are usually repeats but may differ in a detail not shown here. Equal entries are not always repeated. “Also recorded” adds a separate entry of the source.

One data set relates to gastrointestinal tract. Kind of data set: Aminosterol Induced GI Response after oral capsule in a human. The format is in vivo. The procedure:
Gelatin capsules were prepared for oral administration. Capsules were coated in shellac to prevent their release within the stomach. Furthermore, because squalamine and related aminosterols have antibiotic activity, enteric coating prevents the drug from altering the microbial populations of the stomach. […] Squalamine dilactate powder, 99% pure, or 1436 hydrochloride, 99% pure, was added manually into either Size 0 (for the 200 mg dose) or Size 1 (for the 100 mg dose) gelatin capsules. No excipient was added. The capsules were coated twice in 5% shellac (80% acetone/20% ethanol) and dried before use.
200 mg of squalamine (lactate salt, excipient free) in a coated gelatin capsule was administered orally to a human in the morning on an empty stomach, with water. Squalamine was synthesized as described in Zasloff et al 2011. Within 2 hours nausea was experienced, lasting about 30 minutes. At 2.5 hours, increased peristalsis (“rumbling gut”) was experienced, lasting several minutes. At about 3 hours, a clear watery discharge of about 200 ml was passed rectally. A second episode occurred at 3.2 hours. Following this episode, bowel sounds quieted. No nausea or discomfort was subsequently experienced. Appetite was near normal. Despite normal feeding, feces were not passed for 2.5 days over which time no discomfort was experienced. The first feces passed after this quiescent period was soft and relatively small considering the intake of food and the time interval. Usual bowel functions resumed by about 4 days after squalamine administration.
200 mg of 1436 (HCl salt, excipients free) in a gelatin capsule was administered orally to a human in the morning on an empty stomach, with water. […] At 2 hours, about 100 ml of clear watery diarrhea, recurring at 2.75 hours, 3 hours, 3.25 hours, and 4 hours, with progressively lesser volumes of liquid discharged. First bowel movement was passed at 3.5 days, of normal consistency. The subject experienced no abdominal discomfort, bloating, etc over this period. Usual bowel functions resumed by about 4.5 days after administration of Aminosterol 1436. […]
100 mg of squalamine was orally administered in a capsule as in the first example. […] A period of “bowel quiet” was induced, however, that lasted 2 days, after which normally formed feces were passed.

The conditions of data set [1]: extensive studies in animals; cited from earlier work.
For another data set, the system named is appetite and body weight. To be noted: cited from earlier work.
Another data set concerns HIV. To be noted: tissue culture; cited from earlier work.
Where [2] appears, read: single 200 mg oral capsule, morning, empty stomach, one human.

As for `CC(C)[C@@H](CC[C@@H](C)[C@H]1CC[C@H]2[C@@H]3[C@H](O)C[C@H]4C[C@@H](NCCCNCCCCNCCCN)CC[C@]4(C)[C@H]3CC[C@]12C)OS(=O)(=O)O` [Aminosterol 1436], the “duration of the Aminosterol-Induced GI Response” value with gastrointestinal tract (following a single 200 mg oral dose) is given as “about 4 days”. For the same molecule, in the data set on gastrointestinal tract (setting [2]), the “first clear watery rectal discharge / diarrhea, time after dosing” value was 2 h; the “further episodes of watery discharge, time after dosing” value was 2.75 h and 3 h and 3.25 h and 4 h; the “increased peristalsis, time after dosing” value is not above 1 h; the “usual bowel functions resumed, time after administration” value is reported as “about 4.5 days”. The “volume of first clear watery discharge” value with gastrointestinal tract (setting [2]) is listed as “about 100 ml”. For the same molecule, the “time without feces / to first bowel movement after dosing” value in the data set with gastrointestinal tract (single 200 mg oral capsule, morning, empty stomach, normal behavior about 1 passage every 24 hours) is 3.5 days. Moreover, the “estimated reduction of small intestinal motility” value in the data set with gastrointestinal tract (single 200 mg oral dose, versus normal about 1 passage every 24 hours) is 3.5 fold. For the same molecule, the “absorption from the gastrointestinal tract” value in data set [1] is “neither squalamine nor Aminosterol 1436 can be absorbed to any extent”. In addition, in the data set with appetite and body weight (oral, dogs and rodents), the “anorectic activity when administered orally” value is “no anorectic activity”. Moreover, the “appetite and weight on parenteral administration” value in the data set with appetite and body weight (parenteral) is “potent appetite suppression and promotion of dose-dependent weight loss; also recorded: capable of inducing weight loss”. Besides, the antiviral activity entry in the data set with HIV is “exhibits antiviral activity against HIV”.
